# Experimental data as given in US20120264755A1, “PYRIDINYL DERIVATIVES AS INHIBITORS OF ENZYME NICOTINAMIDE PHOSPHORIBOSYLTRANSFERASE” (TopoTarget, priority 2009, published 2012).
# Counter-ions that a name gives are not always drawn.
# Test system: A2780 cells
# Experiment: In vitro cell proliferation assay (WST-1 assay)
# Format: cell-based
# Conditions: Homo sapiens, total incubation time 72 h, WST-1 readout
# Procedure: A2780 cells were seeded in 96-well plates at 3×10^3 cells/well in 100 μL of culture medium, 8 wells were left empty for media only controls.
# After 24 h the compound titrations were performed, in a separate dilution plate, by serially diluting the compounds of general formula (I) in culture medium. A 100 μL of each dilution was added to the plated cells, this was done in triplicate, and controls (e.g. DMSO and blanks) were included. The plates were incubated for 24 h at 37° C. in a CO2 incubator. The compound titrations were repeated in a separate dilution plate after 24 h. The media plus compound from the assay plates were then aspirated. A 100 μL of media was then added to all wells, followed by 100 μL of each compound dilution. The plates were incubated for a further 48 h at 37° C. in a CO2 incubator (total incubation time 72 h). The number of viable cells was then assessed using Cell Proliferation Reagent WST-1. 10 μL of WST-1 reagent added to each well and incubated for one to four hours at 37° C. in CO2 incubator. The absorbance was measured (450 nm/690 nm).
# The activity of compounds of general formula (I) in reducing the number of viable cells was calculated as:
# % activity=[(S^c−B)/(S^o−B)]×100
# S^c denotes signal measured in the presence of test compound, S^o denotes signal detected in the absence of compound, and B denotes background signal, measured in blank wells containing medium only. Analyse data using GraphPad Prism.
row,Compound,IC50 [nM]
1,"N#CN=C(NCCCCCCOc1ccc(Cl)cc1)Nc1ccncc1 [CHS828, 1-(6-(4-chlorophenoxy)hexyl)-2-cyano-3-(pyridine-4-yl)guanidine, reference compound]",0.52
2,N#C/N=C(\NCCCCCCCCN(CCCN1CCOCC1)C1CCCCC1)Nc1ccncc1 [Compound 1001],0.49
3,"N#C/N=C(\NCCCCCCCN(CCCN1CCOCC1)C1CCCCC1)Nc1ccncc1 [Compound 1002, 2-cyano-1-(7-(cyclohexyl(3-morpholinopropyl)amino)heptyl)-3-(pyridin-4-yl)guanidine]",2.03
4,"N#C/N=C(\NCCCCCCN(CCCN1CCOCC1)C1CCCCC1)Nc1ccncc1 [Compound 1003, 2-cyano-1-(6-(cyclohexyl(3-morpholinopropyl)amino)hexyl)-3-(pyridin-4-yl)guanidine]",11.2
5,"N#C/N=C(\NCCCCCCCN(CCCN1CCOCC1)S(=O)(=O)C1CCCCC1)Nc1ccncc1 [Compound 1010, N-(7-(2-cyano-3-(pyridin-4-yl)guanidino)heptyl)-N-(3-morpholinopropyl)cyclohexanesulfonamide]",0.002
6,"N#C/N=C(\NCCCCCCCN(CCCN1CCOCC1)S(=O)(=O)C1CCCC1)Nc1ccncc1 [Compound 1011, N-(7-(2-cyano-3-(pyridin-4-yl)guanidino)heptyl)-N-(3-morpholinopropyl)cyclopentanesulfonamide]",0.003
7,"O=C(NCCCCCCCCN(CCCN1CCOCC1)S(=O)(=O)C1CCCC1)NCc1cccnc1 [Compound 1012, N-(3-morpholinopropyl)-N-(8-(3-(pyridin-3-ylmethyl)ureido)octyl)cyclopentanesulfonamide]",0.09
8,"O=C(NCCCCCCCCN(CCCN1CCOCC1)S(=O)(=O)C1CCCCC1)NCc1cccnc1 [Compound 1013, N-(3-morpholinopropyl)-N-(8-(3-(pyridin-3-ylmethyl)ureido)octyl)cyclohexanesulfonamide]",0.025
9,"O=C(NCCCCCCCN(CCCN1CCOCC1)S(=O)(=O)C1CCCC1)NCc1cccnc1 [Compound 1015, N-(3-morpholinopropyl)-N-(7-(3-(pyridin-3-ylmethyl)ureido)heptyl) cyclopentanesulfonamide]",0.1
10,"O=c1c(NCCCCCCCCN(CCCN2CCOCC2)S(=O)(=O)C2CCCC2)c(Nc2ccncc2)c1=O [Compound 1016, N-(8-(3,4-dioxo-2-(pyridin-4-ylamino)cyclobut-1-enylamino)octyl)-N-(3-morpholinopropyl)cyclopentanesulfonamide]",0.44
11,"O=c1c(NCCCCCCCN(CCCN2CCOCC2)S(=O)(=O)C2CCCC2)c(Nc2ccncc2)c1=O [Compound 1019, N-(7-(3,4-dioxo-2-(pyridin-4-ylamino)cyclobut-1-enylamino)heptyl)-N-(3-morpholinopropyl)cyclopentanesulfonamide]",0.44
12,CS(=O)(=O)N(CCCCCCCCN/C(=N\C#N)Nc1ccncc1)OCc1ccccc1 [Compound 1020],0.018
13,CS(=O)(=O)N(CCCCCCCCNC(=O)NCc1cccnc1)OCc1ccccc1 [Compound 1022],0.8
14,CC(C)S(=O)(=O)N(CCCCCCCCN/C(=N\C#N)Nc1ccncc1)OCc1ccccc1 [Compound 1024],0.047
15,"CC(C)S(=O)(=O)N(CCCCCCCCNC(=O)Nc1ccncc1)OCc1ccccc1 [Compound 1028, N-(Benzyloxy)-N-(8-(3-pyridin-4-ylureido)octyl)propane-2-sulfonamide]",0.37
16,"CS(=O)(=O)N(CCCCCCCCNC(=O)/C=C/c1cccnc1)CCCN1CCOCC1 [Compound 1033, N-(8-(N-(3-morpholinopropyl)methylsulfonamido)octyl)-3-(pyridin-3-yl)acrylamide]",1.17
17,"N#C/N=C(\NCCCCCCCCN(CCCN1CCOCC1)S(=O)(=O)c1ccccc1)Nc1ccncc1 [Compound 1035, N-(8-(2-cyano-3-(pyridin-4-yl)guanidino)octyl)-N-(3-morpholinopropyl)benzenesulfonamide]",0.042
18,O=C(NCCCCCCCCN(CCCN1CCOCC1)S(=O)(=O)c1ccccc1)NCc1cccnc1 [Compound 1037],0.002
19,O=C(NCCCCCCN(CCCN1CCOCC1)S(=O)(=O)C1CCCC1)NCc1cccnc1 [Compound 1046],0.38
20,N#C/N=C(\NCCCCCCCN(OC1CCCCO1)S(=O)(=O)Cc1ccccc1)Nc1ccncc1 (stereo not drawn) [Compound 1055],0.025

row,Compound,IC50 [nM]
1,"O=c1c(NCCCCCCCN(OC2CCCCO2)S(=O)(=O)Cc2ccccc2)c(Nc2ccncc2)c1=O (stereo not drawn) [Compound 1056, N-(7-(3,4-Dioxo-2-(pyridin-4-ylamino)cyclobut-1-enylamino)heptyl)-1-Phenyl-N-(tetrahydro-2H-pyran-2-yloxy)methanesulfonamide]",0.35
2,"O=C(NCCCCCCCN(OC1CCCCO1)S(=O)(=O)Cc1ccccc1)NCc1cccnc1 (stereo not drawn) [Compound 1057, 1-Phenyl-N-(7-(3-(pyridin-3-ylmethyl)ureido)heptyl)-N-(tetrahydro-2H-pyran-2-yloxy)methanesulfonamide]",0.37
3,"O=C(/C=C/c1cccnc1)NCCCCCCCN(OC1CCCCO1)S(=O)(=O)Cc1ccccc1 (stereo not drawn) [Compound 1058, (E)-N-(7-(1-phenyl-N-(tetrahydro-2H-pyran-2-yloxy)methylsulfonamido)heptyl)-3-(pyridin-3-yl)acrylamide]",0.39
4,"CCS(=O)(=O)N(CCCCCCCN/C(=N\C#N)Nc1ccncc1)OCC1CCCCC1 [Compound 1060, N-(7-(2-cyano-3-(pyridin-4-yl)guanidino)heptyl)-N-(cyclohexylmethoxy)ethanesulfonamide]",0.049
5,"CCS(=O)(=O)N(CCCCCCCNc1c(Nc2ccncc2)c(=O)c1=O)OCC1CCCCC1 [Compound 1061, N-(cyclohexylmethoxy)-N-(7-(3,4-dioxo-2-(pyridin-4-ylamino)cyclobut-1-enylamino)heptyl)ethanesulfonamide]",0.35
6,"CCS(=O)(=O)N(CCCCCCCNC(=O)Nc1ccncc1)OCC1CCCCC1 [Compound 1064, N-(cyclohexylmethoxy)-N-(7-(3-(pyridin-4-yl)ureido)heptyl)ethanesulfonamide]",0.44
7,"N#C/N=C(\NCCCCCCCCN(CCCN1CCOCC1)C(=O)c1ccccc1)Nc1ccncc1 [Compound 1071, N-(8-(2-cyano-3-(pyridin-4-yl)guanidino)octyl)-N-(3-morpholinopropyl)benzamide]",0.049
8,"O=C(c1ccccc1)N(CCCCCCCCNc1c(Nc2ccncc2)c(=O)c1=O)CCCN1CCOCC1 [Compound 1072, N-(8-(3,4-dioxo-2-(pyridin-4-ylamino)cyclobut-1-enylamino)octyl)-N-(3-morpholinopropyl)benzamide]",0.17
9,"O=C(NCCCCCCCCN(CCCN1CCOCC1)C(=O)c1ccccc1)NCc1cccnc1 [Compound 1073, N-(3-morpholinopropyl)-N-(8-(3-(Pyridin-3-ylmethyl)ureido)octyl)benzamide]",0.31
10,"O=C(/C=C/c1cccnc1)NCCCCCCCCN(CCCN1CCOCC1)C(=O)c1ccccc1 [Compound 1074, (E)-N-(3-morpholinopropyl)-N-(8-(3-(pyridin-3-yl)acrylamido)octyl)benzamide]",0.6
11,"O=C(c1ccccc1)N(CCCCCCCCNC(=S)Nc1ccncc1)CCCN1CCOCC1 [Compound 1075, N-(3-morpholinopropyl)-N-(8-(3-(pyridin-4-yl)thioureido)octyl)benzamide]",0.39
12,"N#C/N=C(\NCCCCCCCCN(CCCN1CCOCC1)C(=O)c1ccccc1)Nc1cccnc1 [Compound 1076, N-(8-(2-cyano-3-(pyridin-3-yl)guanidino)octyl)-N-(3-morpholinopropyl)benzamide]",0.075
13,"CCN(CCCCCCCCNC(=O)NCc1cccnc1)OCc1ccccc1 [Compound 1081, 1-(8-(benzyloxy(ethyl)amino)octyl)-3-(pyridin-3-ylmethyl)urea oxalate]",0.55
14,"CCON(CCCCCCCCN/C(=N\C#N)Nc1ccncc1)Cc1ccccc1 [Compound 1085, 1-(8-(benzyl(ethoxy)amino)octyl)-2-cyano-3-(pyridin-4-yl)guanidine]",0.062
15,"CCN(CCCCCCCCN/C(=N\C#N)Nc1ccncc1)OCCN1CCOCC1 [Compound 1086, 2-Cyano-1-(8-(ethyl(2-morpholinoethoxy)amino)octyl)-3-(pyridin-4-yl)guanidine oxalate]",0.024
16,"CP(C)(=O)N(CCCCCCCCN/C(=N\C#N)Nc1ccncc1)CCCN1CCOCC1 [Compound 1088, 2-Cyano-1-(8-((dimethylphosphoryl)(3-morpholinopropyl)amino)octyl)-3-(pyridin-4-yl)guanidine]",5.65
17,"N#C/N=C(\NCCCCCCCCN(CCCN1CCOCC1)C(=O)NC1CCCCC1)Nc1ccncc1 [Compound 1093, 1-(8-(2-cyano-3-(pyridin-4-yl)guanidino)octyl)-3-cyclohexyl-1-(morpholinopropyl)urea]",0.063
18,"N#C/N=C(\NCCCCCCCCN(CCCN1CCOCC1)C(=S)Nc1ccccc1)Nc1ccncc1 [Compound 1094, 1-(8-(2-cyano-3-(pyridin-4-yl)guanidino)octyl)-1-(3-morpholinopropyl)-3-Phenylthiourea]",0.036
19,"N#C/N=C(\NCCCCCCCN(CCF)S(=O)(=O)C1CCCCC1)Nc1ccncc1 [Compound 1098, N-(7-(2-cyano-3-(pyridin-4-yl)guanidino)heptyl)-N-(2-fluoroethyl)cyclohexansylfonamide]",0.07
